# Values of other authors as cited in patent US11931454B2, “Wet-packed soft hydrogel ocular inserts” (Alcon Inc., priority 2019, dated 2024).
# Details: arylboronic acid group of the monomer
row,pKa,Molecule
1,~8.2,3-(meth)acrylamidophenylboronic acid
2,< 7.8,C=Cc1ccc(CN(C)C)c(B(O)O)c1 [2-Dimethylaminomethyl-5-vinylphenylboronic acid]
3,~7.1,C=CCCS(=O)(=O)c1ccc(B(O)O)cc1 [4-(3-Butenylsulfonyl)phenylboronic acid]
4,~7.4,C=CCNS(=O)(=O)c1ccc(B(O)O)cc1 [4-(N-allylsulfamoyl)phenylboronic acid]

row,Molecule,pKa
1,"4-(1,6-Dioxo-2,5-diaza-7-oxamyl)phenylboronic acid",~7.8
